Reference: US4822787A, “3-pyrrolidinylthio-1-azabicyclo(3.2.0)-hept-2-ene-2-carboxylic acid compounds and antimicrobial activity thereof” (Fujisawa Pharmaceutical Co., Ltd., priority 1986, dated 1989)
≈ marks a conversion by molar mass, not a printed value.

What was measured:
Type in all cases: cell-based
[1] = system: S. aureus 2496; test: in vitro Antimicrobial Activity, two-fold agar-plate dilution method (MIC), S. aureus 2496; settings: Staphylococcus aureus, Mueller Hinton agar, 37° C., 20 hours, read-out: minimal inhibitory concentration (MIC)
Method: (§1) in vitro Antimicrobial Activity was determined by the two-fold agar-plate dilution method as described below. One loopful of 100-fold dilution of an overnight culture of a test strain in Mueller Hinton broth (Difco) (approximately 10^6 viable cells per ml) was spot-inoculated on Mueller Hinto agar^(*) (Difco) containing graded concentrations of the test compound, and the minimal inhibitory concentration (MIC) was expressed in terms of μg/ml after incubation at 37° C. for 20 hours.

[2] = system: P. aeruginosa 3036; test: in vitro Antimicrobial Activity, two-fold agar-plate dilution method (MIC), P. aeruginosa 3036; settings: Pseudomonas aeruginosa, Mueller Hinton agar, 37° C., 20 hours, read-out: minimal inhibitory concentration (MIC)
Method: as §1

[3] = system: E. cloacae 3013; test: in vitro Antimicrobial Activity, two-fold agar-plate dilution method (MIC), E. cloacae 3013; settings: Enterobacter cloacae, Mueller Hinton agar, 37° C., 20 hours, read-out: minimal inhibitory concentration (MIC)
Method: as §1

[4] = system: H. influenzae 58; test: in vitro Antimicrobial Activity, two-fold agar-plate dilution method (MIC), H. influenzae 58; settings: Haemophilus influenzae, added 5% horse blood-chocolate agar, 37° C., 20 hours, read-out: minimal inhibitory concentration (MIC)
Method: as §1, with “hours. [(*)added 5% horse blood-chocolate agar for the test of H. influenzae]” for “hours.”

| MIC [1] | MIC [2] | MIC [3] | MIC [4] | SMILES |
| --- | --- | --- | --- | --- |
| 0.05 µg/mL (≈ 0.117 µM) | 0.39 µg/mL (≈ 0.91 µM) | ≤ 0.025 µg/mL | 0.1 µg/mL (≈ 0.233 µM) | C[C@@H](O)[C@H]1C(=O)N2C(C(=O)O)=C(S[C@@H]3CN[C@H](COCCNC(N)=O)C3)[C@H](C)[C@H]12 [Compound of this invention, (4R,5S,6S)-6-[(1R)-1-hydroxyethyl]-4-methyl-7-oxo-3-[(2S,4S)-2-{(2-ureidoethyl)oxymethyl}pyrrolidin-4-yl]thio-1-azabicyclo[3.2.0]hept-2-ene-2-carboxylic acid] |
| 1.56 µg/mL (≈ 4.06 µM) | 1.56 µg/mL (≈ 4.06 µM) | 0.1 µg/mL (≈ 0.26 µM) | 0.78 µg/mL (≈ 2.03 µM) | C[C@@H](O)[C@H]1C(=O)N2C(C(=O)O)=C(S[C@@H]3CN[C@H](CNC(N)=O)C3)[C@H](C)[C@H]12 [Reference Compound, (4R,5S,6S)-6-[(1R)-1-hydroxyethyl]-4-methyl-7-oxo-3-[(2S,4S)-2-ureidomethylpyrrolidin-4-yl]thio-1-azabicyclo[3.2.0]hept-2-ene-2-carboxylic acid] |
